# Reference: article PMC3973950, “Synthesis of 5-arylidine amino-1,3,4-thiadiazol-2-[(N-substituted benzyol)]sulphonamides endowed with potent antioxidants and anticancer activity induces growth inhibition in HEK293, BT474 and NCI-H226 cells” (Medicinal Chemistry Research, 2013)
# What was measured:
# [1] = In vitro cytotoxicity by MTT assay, HEK 293; type: cell-based, human; conditions: human, HEK 293 cells, read-out: % cytotoxicity (100 − % cell survival) of HEK 293 cell line
# Description: (§1) The cancer cell line cultures of HEK 293 ([…]), BT474 (breast cancer cell line) and NCI-H226 (lung cancer) were obtained from Pasteur Institute of India, Coonoor, India, and were cultured in RPMI-1640 and 10 % heat-[…] New born calf serum with antibiotics [penicillin ([…]), streptomycin (100 μg/mL) and amphotericin B (25 μg/mL)]. The cells were maintained at 37 °C in a humidified atmosphere with 5 % CO2 and were subcultured twice a week.
# (§2) The monolayer cell culture (100 μL) was trypsinized, and the cell count was adjusted to […] using medium containing 10 % new born calf serum. To each well of the 96-well microtitre plate, the diluted cell suspension (approximately 10,000 cells) (0.1 mL) was added and kept for 24 h in incubator at 37 °C in 5 % CO2 atmosphere for cell monolayer formation. After 24 h, when a partial monolayer was formed at the bottom of the well, the supernatant was flicked off, the monolayer was washed once, and different drugs, i.e. synthesized compounds (100 μL), were added to the cells in microtitre plates. The plates were then incubated at 37 °C for 3 days in 5 % CO2 atmosphere, and microscopic examination was carried out and observations recorded every 24 h. After 72 h, the sample solution in the wells was flicked off; MTT dye ([…]) was added to each well; plates were gently shaken and incubated for 4 h at 37 °C in 5 % CO2 incubator. The supernatant was removed and propanol (50 μL) was added; the plates were gently shaken to solubilize the formed formazan. The absorbance was measured using a microplate reader at a wavelength of 490 nm (Edmondson et al., [1988]; Prasad et al., [2005]; Chiruvella et al., [2008]; Chang et al., [2007]).
# [2] = test system: NCI-H226 (lung cancer cell line); assay: In vitro cytotoxicity by MTT assay, NCI-H226; type: cell-based; conditions: Homo sapiens, 72 h, read-out: % Cytotoxicity (100 − % cell survival) of NCI-H226 cell line; for cytotoxicity at 0.005 µM: NCI-H226, 0.005 μM; for cytotoxicity at 0.045 µM: NCI-H226, 0.045 μM; for cytotoxicity at 0.13 µM: NCI-H226, 0.13 μM; for cytotoxicity at 0.41 µM: NCI-H226, 0.41 μM; for cytotoxicity at 1.23 µM: NCI-H226, 1.23 μM; for cytotoxicity at 3.7 µM: NCI-H226, 3.7 μM; for cytotoxicity at 11.11 µM: NCI-H226, 11.11 μM; for cytotoxicity at 33.33 µM: NCI-H226, 33.33 μM; for cytotoxicity at 100 µM: NCI-H226, 100 μM
# Description: as §1, §2
# [3] = In vitro cytotoxicity by MTT assay, NCI-H226; type: cell-based; conditions: human, NCI-H226 lung cancer cells, 0.015 μM, read-out: % Cytotoxicity (100 − % cell survival) of NCI-H226 cell line
# Description: as §1, §2
# [4] = test system: BT474 (breast cancer cell line); assay: In vitro cytotoxicity by MTT assay, BT474; type: cell-based; conditions: Homo sapiens, 72 h, read-out: % cytotoxicity (100 − % cell survival) of BT474 cell line; for cytotoxicity at 0.005 µM: BT-474, 0.005 μM; for cytotoxicity at 0.015 µM: BT-474, 0.015 μM; for cytotoxicity at 0.045 µM: BT-474, 0.045 μM; for cytotoxicity at 0.13 µM: BT-474, 0.13 μM; for cytotoxicity at 0.41 µM: BT-474, 0.41 μM; for cytotoxicity at 1.23 µM: BT-474, 1.23 μM; for cytotoxicity at 3.7 µM: BT-474, 3.7 μM; for cytotoxicity at 11.11 µM: BT-474, 11.11 μM; for cytotoxicity at 33.33 µM: BT-474, 33.33 μM; for cytotoxicity at 100 µM: BT-474, 100 μM
# Description: as §1, §2
# [5] = test system: root meristem cells of Allium cepa; assay: In vitro antimitotic activity and cytogenetic analysis, Allium cepa meristem root model; type: cell-based; conditions: compounds 1 mg/mL, PC (EMS) 2 × 10^−2 M
# Description: Small bulbs (1.5–2.0 cm in diameter) of the common onion, A. cepa (2n = 16), were purchased from vendor at a local market. Prior to initiating the test, the outer scales of the bulbs and the dry bottom plate were removed without destroying the root primordia. The roots of A. cepa were grown in distilled water in Erlenmeyer flasks (200 mL capacity) under laboratory conditions (dark 24 °C). For each synthesized compound sample, after reaching a length of 3 cm (±0.5 cm), a series of six bulbs were placed in distilled water (pH 7.3) for 48 h and then onion roots were treated with the synthesized compound at 1 mg/mL concentrations of each tested compound. The test tubes were kept in an incubator at 22 ± 1 °C, and the test samples were changed daily at the same time. Several of the newly formed root tips were then cut from each bulb and examined for any visible morphological abnormalities. The bulbs with satisfactory root lengths (2–2.5 cm) were used in the study, while those with exceptionally long or short roots were discarded (on average 2–3 bulbs). Therefore, individual sets of five bulbs were used for each extract sample.
# Distilled water (pH 7.3) was used as a negative control, and EMS (2 × 10^−2 M) used as a positive control mutagen (Fiskesjo, [1993], [1997]). After 24 h of exposure, several root tips were removed from the bulbs, fixed in 3:1 (v/v) ethanol (90 %)/glacial acetic acid (45 %) and stored overnight at 4 °C. The next day, they were placed in 70 % (v/v) aqueous alcohol and refrigerated until used. Allium roots were softened by digesting with HCl and rinsed the roots in water. After removing the water from the third rinse, the roots were covered with the orcein acetate stain. The roots were incubated in the stain for 12 min. During this time, the very tip of the root begins to turn red as the DNA stains the numerous small actively dividing cells at the tip. A root was transferred to the centre of a clean microscope slide, and a drop of water was added. Using a razor blade most of the unstained part of the root was cut off and discarded. The root tip was covered with a cover slip and then carefully pushed down on the cover slide with the wooden end of a dissecting probe. […] The root tip should spread out to a diameter about 0.5–1 cm. Five slides were prepared per bulb.
# The following parameters were used for the determination of cytotoxicity and genotoxicity: • (i) the mitotic index (MI) was calculated as the ratio between the number of mitotic cells and the total number of cells scored and expressed as percentage using following formula as per standard procedures. Mitoticindex=Numberofdividingcells/Totalnumberofcells×100 • (ii) Chromatin aberrations (stickiness, breaks and polar deviation) were used as end points for the determination of cytogenetic effects, and micronuclei (MNC) were scored in interphase cells per 1,000 cells (‰ MNC) (Freshney, [2000]). • (iii) The most frequent abnormalities are shown in microphotographs. After 72 h of exposure to the test samples, the root lengths were measured and used as an index of general toxicity. The results for mitotic index and root length are expressed as percentage of the negative and positive controls. Visible morphological modifications, such as changes in root consistency and colour as well as the presence of swelling (c-tumours), hooks or twists in the roots, were also observed.
smiles,measurement,setting,value
Nc1nnc(S(=O)(=O)NC(=O)c2ccccc2N)s1 [Compound 4b],"cytotoxicity at 72 h, 0.005 µM",[1],41.5%
same,"cytotoxicity at 72 h, 0.015 µM",[1],47%
same,"cytotoxicity at 72 h, 0.045 µM",[1],50.4%
same,"cytotoxicity at 72 h, 0.13 µM",[1],53.6%
same,"cytotoxicity at 72 h, 0.41 µM",[1],57.6%
same,"cytotoxicity at 72 h, 1.23 µM",[1],58.1%
same,"cytotoxicity at 72 h, 3.7 µM",[1],59.7%
same,"cytotoxicity at 72 h, 11.11 µM",[1],62.3%
same,"cytotoxicity at 72 h, 33.33 µM",[1],63.1%
same,"cytotoxicity at 72 h, 100 µM",[1],65.4%
same,cytotoxicity at 0.005 µM,[2],32.1%
same,cytotoxicity at 0.045 µM,[2],33.5%
same,cytotoxicity at 0.13 µM,[2],34%
same,cytotoxicity at 0.41 µM,[2],34.7%
same,cytotoxicity at 1.23 µM,[2],35.1%
same,cytotoxicity at 3.7 µM,[2],36%
same,cytotoxicity at 11.11 µM,[2],36.3%
same,cytotoxicity at 33.33 µM,[2],37.2%
same,cytotoxicity at 100 µM,[2],39.5%
same,"cytotoxicity at 72 h, 0.015 µM",[3],32.9%
same,cytotoxicity at 0.005 µM,[4],16.2%
same,cytotoxicity at 0.015 µM,[4],16.6%
same,cytotoxicity at 0.045 µM,[4],17.4%
same,cytotoxicity at 0.13 µM,[4],18%
same,cytotoxicity at 0.41 µM,[4],18.1%
same,cytotoxicity at 1.23 µM,[4],19.9%
same,cytotoxicity at 3.7 µM,[4],20.5%
same,cytotoxicity at 11.11 µM,[4],22.2%
same,cytotoxicity at 33.33 µM,[4],23.3%
same,cytotoxicity at 100 µM,[4],26.7%
Nc1ccc(C(=O)NS(=O)(=O)c2nnc(N)s2)cc1 [Compound 4c],"cytotoxicity at 72 h, 0.005 µM",[1],36.3%
same,"cytotoxicity at 72 h, 0.015 µM",[1],37.9%
same,"cytotoxicity at 72 h, 0.045 µM",[1],38.2%
same,"cytotoxicity at 72 h, 0.13 µM",[1],39.1%
same,"cytotoxicity at 72 h, 0.41 µM",[1],39.9%
same,"cytotoxicity at 72 h, 1.23 µM",[1],40.7%
same,"cytotoxicity at 72 h, 3.7 µM",[1],42.1%
same,"cytotoxicity at 72 h, 11.11 µM",[1],46.5%
same,"cytotoxicity at 72 h, 33.33 µM",[1],47.8%
same,"cytotoxicity at 72 h, 100 µM",[1],49.1%
same,cytotoxicity at 0.005 µM,[2],37.6%
same,cytotoxicity at 0.045 µM,[2],38.9%
same,cytotoxicity at 0.13 µM,[2],39.3%
same,cytotoxicity at 0.41 µM,[2],42.2%
same,cytotoxicity at 1.23 µM,[2],45.4%
same,cytotoxicity at 3.7 µM,[2],47.2%
same,cytotoxicity at 11.11 µM,[2],49.1%
same,cytotoxicity at 33.33 µM,[2],51.2%
same,cytotoxicity at 100 µM,[2],54.2%
same,"cytotoxicity at 72 h, 0.015 µM",[3],38.2%
same,cytotoxicity at 0.005 µM,[4],30.6%
same,cytotoxicity at 0.015 µM,[4],32.1%
same,cytotoxicity at 0.045 µM,[4],34.2%
same,cytotoxicity at 0.13 µM,[4],35.5%
same,cytotoxicity at 0.41 µM,[4],36.3%
same,cytotoxicity at 1.23 µM,[4],37.6%
same,cytotoxicity at 3.7 µM,[4],38.8%
same,cytotoxicity at 11.11 µM,[4],39.4%
same,cytotoxicity at 33.33 µM,[4],40.3%
same,cytotoxicity at 100 µM,[4],41.4%
Nc1nnc(S(=O)(=O)NC(=O)c2ccccc2O)s1 [Compound 4d],"cytotoxicity at 72 h, 0.005 µM",[1],37.3%
same,"cytotoxicity at 72 h, 0.015 µM",[1],38.3%
same,"cytotoxicity at 72 h, 0.045 µM",[1],39.4%
same,"cytotoxicity at 72 h, 0.13 µM",[1],40.5%
same,"cytotoxicity at 72 h, 0.41 µM",[1],42.1%
same,"cytotoxicity at 72 h, 1.23 µM",[1],42.4%
same,"cytotoxicity at 72 h, 3.7 µM",[1],44.6%
same,"cytotoxicity at 72 h, 11.11 µM",[1],47%
same,"cytotoxicity at 72 h, 33.33 µM",[1],47.6%
same,"cytotoxicity at 72 h, 100 µM",[1],48.1%
same,cytotoxicity at 0.005 µM,[2],34.2%
same,cytotoxicity at 0.045 µM,[2],35.2%
same,cytotoxicity at 0.13 µM,[2],36.3%
same,cytotoxicity at 0.41 µM,[2],37.3%
same,cytotoxicity at 1.23 µM,[2],38%
same,cytotoxicity at 3.7 µM,[2],38.3%
same,cytotoxicity at 11.11 µM,[2],39.7%
same,cytotoxicity at 33.33 µM,[2],42.1%
same,cytotoxicity at 100 µM,[2],42.6%
same,"cytotoxicity at 72 h, 0.015 µM",[3],35.1%
same,cytotoxicity at 0.005 µM,[4],23.2%
same,cytotoxicity at 0.015 µM,[4],24.2%
same,cytotoxicity at 0.045 µM,[4],25.3%
same,cytotoxicity at 0.13 µM,[4],26.2%
same,cytotoxicity at 0.41 µM,[4],26.8%
same,cytotoxicity at 1.23 µM,[4],27.1%
same,cytotoxicity at 3.7 µM,[4],28.1%
same,cytotoxicity at 11.11 µM,[4],29.4%
same,cytotoxicity at 33.33 µM,[4],30.3%
same,cytotoxicity at 100 µM,[4],32.1%
"CCOS(C)(=O)=O [PC, Ethyl methanesulphonate, reference compound]",Aberrant cells (%) ± SEM,[5],43.20 ± 7.10%
same,"MNC (‰) ± SEM (micronuclei per 1,000 cells)",[5],0.59 ± 0.09 ‰
same,Polar deviations (%) ± SEM,[5],12.36 ± 3.36%
same,Stickiness (%) ± SEM,[5],36.31 ± 9.84%
same,MI (%) ± SEM (mitotic index),"[5]; lower MI = higher activity, negative control 6.22",1.86 ± 0.23%
